Source: patent publication US9617244B2, “Antibacterial quinoline derivatives” (JANSSEN PHARMACEUTICA NV, priority 2012, dated 2017)
≈ marks a conversion by molar mass, not a printed value.

What was measured:
[1] = tested on: Staphylococcus aureus (ATCC29213); test: In-vitro anti-bacterial activity, microtitre plate assay, IC90 determination (non-mycobacterial strains); type: cell-based; settings: 90% inhibitory concentration for bacterial growth, resazurin fluorescence; for IC90 STA B29213: 24 hours; for IC90: Staphylococcus aureus, ATCC29213, 24 h, read-out: IC90 STA B29213
Procedure, shortened: (§1)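 Growth inhibition measured fluorometrically with resazurin (530/590 nm) after overnight 37 °C incubation under normal atmosphere. Bacteria added at roughly 100 TCID50 per well in Mueller-Hinton broth to five-fold compound dilution series; IC90 reported in μg/ml.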

[2] = tested on: Streptococcus pneumoniae (ATCC6305); test: as above; type: cell-based; settings: 90% inhibitory concentration for bacterial growth, resazurin fluorescence; for IC90: Streptococcus pneumoniae, ATCC6305, 24 h, read-out: IC90 SPN 6305; for IC90 SPN 6305: 24 hours
Procedure, shortened: as §1

[3] = tested on: Mycobacterium smegmatis (ATCC607); test: In-vitro anti-bacterial activity against strain M. Smegmatis ATCC607; type: cell-based; settings: 90% inhibitory concentration for bacterial growth, Alamar Blue fluorescence; for IC90 MSM 607: 48 hours; for IC90: Mycolicibacterium smegmatis, ATCC607, 48 h, read-out: IC90 MSM 607
Procedure, shortened: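 IC90 (μg/ml) derived from Alamar Blue fluorescence (530/590 nm) after 48 h growth at 37 °C under 5% CO2. About 250 CFU per well in Mueller-Hinton broth faced five-fold serial compound dilutions in BSA-containing wells.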

SMILES	IC90 STA B29213 [1] [µg/mL]	IC90 [2] [µg/mL]	IC90 MSM 607 [3] [µg/mL]	IC90 SPN 6305 [2] [µg/mL]	melting point [°C]	IC90 [1] [µg/mL]	IC90 [3] [µg/mL]
COc1nc2ccc(Br)cc2cc1C(c1ccc(SC)cc1)C1(O)CCNC(Cc2ccccc2)C1 (stereo not shown) [Compound 98]	1.78 (≈ 3.16 µM)	6.32 (≈ 11.2 µM)	1.12 (≈ 1.99 µM)	–	–	–	–
COc1nc2ccc(Br)cc2cc1C(c1ccc(Cl)cc1)C1(O)CCNC(Cc2ccc(F)c(F)c2)C1 (stereo not shown) [Compound 112]	1.66 (≈ 2.82 µM)	–	0.93 (≈ 1.58 µM)	6.60 (≈ 11.2 µM)	124	–	–
O=c1[nH]c2ccc(Br)cc2cc1[C@@H](c1ccc(Cl)cc1)[C@]1(O)CCNC(Cc2ccccc2)C1 (stereo partly shown) [Compound 121]	–	3.62 (≈ 6.73 µM)	–	–	–	3.62 (≈ 6.73 µM)	3.62 (≈ 6.73 µM)
COc1nc2ccc(Br)cc2cc1C(c1ccc(Cl)cc1)C1(O)CCNC(Cc2ccc(F)c(F)c2)C1 (stereo not shown) [Compound 113]	2.02 (≈ 3.44 µM)	–	1.01 (≈ 1.72 µM)	4.04 (≈ 6.87 µM)	–	–	–
COc1nc2ccc(Cl)cc2cc1C(c1ccc(Cl)cc1)C1(O)CCNC(Cc2ccccc2)C1 (stereo not shown) [Compound 94]	3.13 (≈ 6.17 µM)	4.95 (≈ 9.75 µM)	1.76 (≈ 3.47 µM)	–	–	–	–
CSc1nc2ccc(Br)cc2cc1C(c1ccc(Cl)cc1)C1(O)CCNC(Cc2ccccc2)C1 (stereo not shown) [Compound 88]	2.63 (≈ 4.63 µM)	–	1.66 (≈ 2.92 µM)	8.32 (≈ 14.6 µM)	–	–	–
COc1nc2ccc(Br)cc2cc1C(c1ccc(SC)cc1)C1(O)CCNC(Cc2ccccc2)C1 (stereo not shown) [Compound 101]	3.56 (≈ 6.32 µM)	–	1.59 (≈ 2.82 µM)	6.32 (≈ 11.2 µM)	–	–	–
CSc1nc2ccc(Br)cc2cc1C(c1ccc(Cl)cc1)C1(O)CCNC(Cc2ccccc2)C1 (stereo not shown) [Compound 87]	3.58 (≈ 6.3 µM)	7.15 (≈ 12.6 µM)	2.85 (≈ 5.02 µM)	–	227	–	–
COc1nc2ccc(SC)cc2cc1C(c1ccc(Cl)cc1)C1(O)CCNC(Cc2ccccc2)C1 (stereo not shown) [Compound 93]	3.18 (≈ 6.13 µM)	–	2.01 (≈ 3.87 µM)	5.66 (≈ 10.9 µM)	–	–	–
O=c1[nH]c2ccc(Br)cc2cc1[C@@H](c1ccc(Cl)cc1)[C@]1(O)CCNC(Cc2ccccc2)C1 (stereo partly shown) [Compound 122]	2.88 (≈ 5.35 µM)	–	3.62 (≈ 6.73 µM)	3.62 (≈ 6.73 µM)	–	–	–
COc1nc2ccc(SC)cc2cc1C(c1ccc(Cl)cc1)C1(O)CCNC(Cc2ccccc2)C1 (stereo not shown) [Compound 91]	1.64 (≈ 3.16 µM)	–	1.64 (≈ 3.16 µM)	4.63 (≈ 8.92 µM)	214	–	–
COc1nc2ccc(Br)cc2cc1C(c1ccc(Cl)cc1)C1(O)CCNCC1Cc1ccccc1 (stereo not shown) [Compound 114]	–	4.38 (≈ 7.94 µM)	0.98 (≈ 1.78 µM)	–	–	1.75 (≈ 3.17 µM)	–
COc1nc2ccc(SC)cc2cc1C(c1ccc(Cl)cc1)C1(O)CCNC(Cc2ccccc2)C1 (stereo not shown) [Compound 92]	1.64 (≈ 3.16 µM)	–	1.64 (≈ 3.16 µM)	6.54 (≈ 12.6 µM)	114	–	–
COc1nc2ccc(Br)cc2cc1C(c1cccc(Cl)c1)C1(O)CCNC(Cc2ccccc2)C1 (stereo not shown) [Compound 35]	–	4.37 (≈ 7.92 µM)	–	–	–	2.76 (≈ 5 µM)	2.19 (≈ 3.97 µM)
O=c1[nH]c2ccc(Br)cc2cc1C(c1cccc(Cl)c1)C1(O)CCNC(Cc2ccccc2)C1 (stereo not shown) [Compound 86]	1.82 (≈ 3.38 µM)	4.56 (≈ 8.48 µM)	4.07 (≈ 7.57 µM)	–	–	–	–
O=c1[nH]c2ccc(Br)cc2cc1C(c1ccc(Cl)cc1)C1(O)CCNC(Cc2ccc(F)c(F)c2)C1 (stereo not shown) [Compound 40]	–	6.83 (≈ 11.9 µM)	–	–	–	3.42 (≈ 5.96 µM)	1.93 (≈ 3.36 µM)
COc1nc2ccc(Br)cc2cc1C(c1ccc(C#N)cc1)C1(O)CCNC(Cc2ccccc2)C1 (stereo not shown) [Compound 116]	3.42 (≈ 6.3 µM)	–	1.72 (≈ 3.17 µM)	6.83 (≈ 12.6 µM)	153	–	–
COc1nc2ccc(-c3cccnc3)cc2cc1C(c1cccc(Cl)c1)C1(O)CCNC(Cc2ccccc2)C1 (stereo not shown) [Compound 15]	1.74 (≈ 3.16 µM)	6.93 (≈ 12.6 µM)	1.38 (≈ 2.51 µM)	–	220	–	–
COc1nc2ccc(Br)cc2cc1C(c1ccc(C#N)cc1)C1(O)CCNC(Cc2ccccc2)C1 (stereo not shown) [Compound 115]	–	4.16 (≈ 7.67 µM)	–	–	–	3.3 (≈ 6.08 µM)	2.08 (≈ 3.83 µM)
COc1nc2ccc(S(C)(=O)=O)cc2cc1C(c1ccc(Cl)cc1)C1(O)CCNCC1Cc1cccc[n+]1[O-] (stereo not shown) [Compound 65]	–	–	–	–	240	> 14.3	> 14.3

SMILES	IC90 STA B29213 [1] [µg/mL]	IC90 [2] [µg/mL]	IC90 MSM 607 [3] [µg/mL]	IC90 SPN 6305 [2] [µg/mL]	melting point [°C]	IC90 [1] [µg/mL]	IC90 [3] [µg/mL]
COc1nc2ccc(Br)cc2cc1C(c1ccc(S(C)(=O)=O)cc1)C1(O)CCNC(Cc2ccccc2)C1 (stereo not shown) [Compound 102]	3.76 (≈ 6.31 µM)	7.5 (≈ 12.6 µM)	3.76 (≈ 6.31 µM)	–	145	–	–
COc1nc2ccc(Cl)cc2cc1C(c1ccc(Cl)cc1)C1(O)CCNCC1F (stereo not shown) [Compound 455]	7.74 (≈ 17.8 µM)	–	5.48 (≈ 12.6 µM)	–	118	–	–
COc1nc2ccc(S(C)(=O)=O)cc2cc1C(c1ccc(Cl)cc1)C1(O)CCNC(c2ccc(F)cc2C)C1 (stereo not shown) [Compound 218]	5.69 (≈ 10 µM)	–	2.85 (≈ 5.01 µM)	–	174	–	–
COc1nc2ccc(Br)cc2cc1C(c1ccc(Cl)cc1)C1(O)CCNC(Cc2ccc(F)c(F)c2)C1 (stereo not shown) [Compound 39]	–	5.24 (≈ 8.91 µM)	–	–	106	1.17 (≈ 1.99 µM)	0.93 (≈ 1.58 µM)
COc1nc2ccc(Br)cc2cc1C(c1ccc(Cl)cc1)C1(O)CCNC(Cc2ccccn2)C1 (stereo not shown) [Compound 60]	–	–	1.39 (≈ 2.51 µM)	–	161	2.77 (≈ 5.01 µM)	–
COc1nc2ccc(SC)cc2cc1C(c1ccc(Cl)cc1)C1(O)CCNC(Cc2ccc(F)c(F)c2)C1 (stereo not shown) [Compound 191]	3.50 (≈ 6.31 µM)	–	3.50 (≈ 6.31 µM)	–	162	–	–
COc1nc2ccc(S(C)(=O)=O)cc2cc1C(c1ccccc1)C1(O)CCNC(c2ccc(F)cc2C)C1 (stereo not shown) [Compound 185]	13.43 (≈ 25.1 µM)	–	8.47 (≈ 15.8 µM)	–	162	–	–
CCCN(C)CC1CC(O)(C(c2ccc(Cl)cc2)c2cc3cc(Cl)ccc3nc2OC)CCN1 (stereo not shown) [Compound 63]	3.17 (≈ 6.31 µM)	–	1.59 (≈ 3.16 µM)	–	157	–	–
COc1nc2ccc(Br)cc2cc1C(c1ccc(Cl)cc1)C1(O)CCNC(Cc2ccc(F)cc2)C1 (stereo not shown) [Compound 357]	5.70 (≈ 10 µM)	–	3.60 (≈ 6.32 µM)	–	104	–	–
COc1nc2ccc(Br)cc2cc1C(c1ccc(Cl)cc1)C1(O)CCNC(Cc2ccc(F)cc2)C1 (stereo not shown) [Compound 337]	1.80 (≈ 3.16 µM)	–	0.90 (≈ 1.58 µM)	–	186	–	–
COc1nc2ccc(S(C)(=O)=O)cc2cc1C(c1ccccc1)C1(O)CCNC(c2ccc(F)cc2C)C1 (stereo not shown) [Compound 187]	>13.43	–	13.43 (≈ 25.1 µM)	–	167	–	–
COc1nc2ccc(SC)cc2cc1C(c1ccc(Cl)cc1)C1(O)CCNC(Cc2ccccc2)C1 (stereo not shown) [Compound 90]	–	8 (≈ 15.4 µM)	–	–	–	3.18 (≈ 6.13 µM)	3.18 (≈ 6.13 µM)
COc1nc2ccc(Br)cc2cc1C(c1ccc(SC)cc1)C1(O)CCNC(Cc2ccccc2)C1 (stereo not shown) [Compound 99]	1.78 (≈ 3.16 µM)	–	1.42 (≈ 2.52 µM)	6.32 (≈ 11.2 µM)	214	–	–
COc1nc2ccc(S(C)(=O)=O)cc2cc1C(c1ccc(Cl)cc1)C1(O)CCNC(Cc2ccccc2)C1 (stereo not shown) [Compound 38]	3.48 (≈ 6.31 µM)	6.94 (≈ 12.6 µM)	3.48 (≈ 6.31 µM)	–	130	–	–
COc1nc2ccc(S(C)(=O)=O)cc2cc1C(c1ccc(Cl)cc1)C1(O)CCNC(c2ccc3ccccc3c2)C1 (stereo not shown) [Compound 463]	14.75 (≈ 25.1 µM)	–	2.34 (≈ 3.99 µM)	–	160	–	–
CSc1ccc2[nH]c(=O)c(C(c3ccc(Cl)cc3)C3(O)CCNC(Cc4ccc(F)c(F)c4)C3)cc2c1 (stereo not shown) [Compound 203]	10.80 (≈ 20 µM)	–	–	–	> 250	–	6.81 (≈ 12.6 µM)
COc1nc2ccc(Br)cc2cc1C(c1ccc(Cl)cc1)C1(O)CCNCC1Cc1ccccc1 (stereo not shown) [Compound 117]	–	5.52 (≈ 10 µM)	–	–	–	3.48 (≈ 6.31 µM)	2.77 (≈ 5.02 µM)
COc1nc2ccc(SC)cc2cc1C(c1ccc(Cl)cc1)C1(O)CCNCC1Cc1cccc(F)c1 (stereo not shown) [Compound 283]	3.39 (≈ 6.31 µM)	–	3.39 (≈ 6.31 µM)	–	184	–	–
COc1nc2ccc(Br)cc2cc1C(c1ccc(Cl)cc1)C1(O)CCNCC1Cc1ccccc1 (stereo not shown) [Compound 41]	3.48 (≈ 6.31 µM)	–	3.48 (≈ 6.31 µM)	6.95 (≈ 12.6 µM)	–	–	–
